Measurements as given in PubChem BioAssay AID1259407 (Chemical Carcinogenesis Research Information System (CCRIS), 2018).
Calls of active or inactive are those of the source. How the calls were made is not given here.

System: CCRIS mutagenicity, Ames/micronucleus/aberration tests
Experiment: CCRIS mutagenicity studies

SMILES: COc1ccc(N)cc1
- mutagenic call (End Point: IN VITRO CHROMOSOMAL ABERRATIONS, Test System: CHINESE HAMSTER OVARY CELLS, Metabolic Activation: NONE): active; positive
- mutagenic call (End Point: IN VITRO CHROMOSOMAL ABERRATIONS, Test System: CHINESE HAMSTER OVARY CELLS, Metabolic Activation: RAT, LIVER, S-9, AROCLOR 1254): active; positive
- mutagenic call (End Point: MORPHOLOGICAL TRANSFORMATION, Test System: SYRIAN HAMSTER EMBRYO CELLS (SHE), Metabolic Activation: NONE): active; positive
- mutagenic call (Test System: AMES SALMONELLA TYPHIMURIUM, Strain/Indicator: TA98, Metabolic Activation: HAMSTER, LIVER, S-9, AROCLOR 1254 (30%), Method: PREINCUBATION): inactive; negative
- mutagenic call (Test System: AMES SALMONELLA TYPHIMURIUM, Strain/Indicator: TA98, Metabolic Activation: HAMSTER, LIVER, S-9, AROCLOR 1254, Method: STANDARD PLATE): inactive; negative
- mutagenic call (Test System: AMES SALMONELLA TYPHIMURIUM, Strain/Indicator: TA98, Metabolic Activation: HAMSTER, LIVER, S-9, Method: STANDARD PLATE): inactive; negative
- mutagenic call (Test System: AMES SALMONELLA TYPHIMURIUM, Strain/Indicator: TA98, Metabolic Activation: MOUSE, LIVER, S-9, AROCLOR 1254, Method: STANDARD PLATE): inactive; negative
- mutagenic call (Test System: AMES SALMONELLA TYPHIMURIUM, Strain/Indicator: TA98, Metabolic Activation: MOUSE, LIVER, S-9, Method: STANDARD PLATE): inactive; negative
- mutagenic call (Test System: AMES SALMONELLA TYPHIMURIUM, Strain/Indicator: TA98, Metabolic Activation: NONE, Method: PREINCUBATION): inactive; negative
- mutagenic call (Test System: AMES SALMONELLA TYPHIMURIUM, Strain/Indicator: TA98, Metabolic Activation: NONE, Method: STANDARD PLATE): inactive; negative
- mutagenic call (Test System: AMES SALMONELLA TYPHIMURIUM, Strain/Indicator: TA98, Metabolic Activation: RAT LIVER S-9, PHENOBARBITAL AND BETA-NAPHTHOFLAVONE, Method: PREINCUBATION): inactive; negative
- mutagenic call (Test System: AMES SALMONELLA TYPHIMURIUM, Strain/Indicator: TA98, Metabolic Activation: RAT, LIVER, S-9, AROCLOR 1254 (30%), Method: PREINCUBATION): inactive; negative
- mutagenic call (Test System: AMES SALMONELLA TYPHIMURIUM, Strain/Indicator: TA98, Metabolic Activation: RAT, LIVER, S-9, AROCLOR 1254, Method: STANDARD PLATE): inactive; negative
- mutagenic call (Test System: AMES SALMONELLA TYPHIMURIUM, Strain/Indicator: TA98, Metabolic Activation: RAT, LIVER, S-9, Method: STANDARD PLATE): inactive; negative
- mutagenic call (Test System: AMES SALMONELLA TYPHIMURIUM, Strain/Indicator: TA100, Metabolic Activation: HAMSTER, LIVER, S-9, AROCLOR 1254 (30%), Method: PREINCUBATION): active; positive
- mutagenic call (Test System: AMES SALMONELLA TYPHIMURIUM, Strain/Indicator: TA100, Metabolic Activation: NONE, Method: PREINCUBATION): inactive; negative
- mutagenic call (Test System: AMES SALMONELLA TYPHIMURIUM, Strain/Indicator: TA100, Metabolic Activation: NONE, Method: STANDARD PLATE): inactive; negative
- mutagenic call (Test System: AMES SALMONELLA TYPHIMURIUM, Strain/Indicator: TA100, Metabolic Activation: RAT LIVER S-9, PHENOBARBITAL AND BETA-NAPHTHOFLAVONE, Method: PREINCUBATION): inactive; negative
- mutagenic call (Test System: AMES SALMONELLA TYPHIMURIUM, Strain/Indicator: TA100, Metabolic Activation: RAT, LIVER, S-9, AROCLOR 1254 (30%), Method: PREINCUBATION): inactive; negative
- mutagenic call (Test System: AMES SALMONELLA TYPHIMURIUM, Strain/Indicator: TA102, Metabolic Activation: NONE, Method: PREINCUBATION): inactive; negative
- mutagenic call (Test System: AMES SALMONELLA TYPHIMURIUM, Strain/Indicator: TA102, Metabolic Activation: NONE, Method: STANDARD PLATE): inactive; negative
- mutagenic call (Test System: AMES SALMONELLA TYPHIMURIUM, Strain/Indicator: TA102, Metabolic Activation: RAT LIVER S-9, PHENOBARBITAL AND BETA-NAPHTHOFLAVONE, Method: PREINCUBATION): inactive; negative
- mutagenic call (Test System: AMES SALMONELLA TYPHIMURIUM, Strain/Indicator: TA104, Metabolic Activation: NONE, Method: PREINCUBATION): inactive; negative
- mutagenic call (Test System: AMES SALMONELLA TYPHIMURIUM, Strain/Indicator: TA104, Metabolic Activation: RAT LIVER S-9, PHENOBARBITAL AND BETA-NAPHTHOFLAVONE, Method: PREINCUBATION): inactive; negative
- mutagenic call (Test System: AMES SALMONELLA TYPHIMURIUM, Strain/Indicator: TA1535, Metabolic Activation: HAMSTER, LIVER, S-9, AROCLOR 1254, Method: STANDARD PLATE): inactive; negative
- mutagenic call (Test System: AMES SALMONELLA TYPHIMURIUM, Strain/Indicator: TA1535, Metabolic Activation: HAMSTER, LIVER, S-9, Method: STANDARD PLATE): inactive; negative
- mutagenic call (Test System: AMES SALMONELLA TYPHIMURIUM, Strain/Indicator: TA1535, Metabolic Activation: MOUSE, LIVER, S-9, AROCLOR 1254, Method: STANDARD PLATE): inactive; negative
- mutagenic call (Test System: AMES SALMONELLA TYPHIMURIUM, Strain/Indicator: TA1535, Metabolic Activation: MOUSE, LIVER, S-9, Method: STANDARD PLATE): inactive; negative
- mutagenic call (Test System: AMES SALMONELLA TYPHIMURIUM, Strain/Indicator: TA1535, Metabolic Activation: NONE, Method: PREINCUBATION): inactive; negative
- mutagenic call (Test System: AMES SALMONELLA TYPHIMURIUM, Strain/Indicator: TA1535, Metabolic Activation: NONE, Method: STANDARD PLATE): inactive; negative
- mutagenic call (Test System: AMES SALMONELLA TYPHIMURIUM, Strain/Indicator: TA1535, Metabolic Activation: RAT LIVER S-9, PHENOBARBITAL AND BETA-NAPHTHOFLAVONE, Method: PREINCUBATION): inactive; negative
- mutagenic call (Test System: AMES SALMONELLA TYPHIMURIUM, Strain/Indicator: TA1535, Metabolic Activation: RAT, LIVER, S-9, AROCLOR 1254, Method: STANDARD PLATE): inactive; negative
